This is an account of results in patent US12370182B2, “Bicyclic derivatives as GABAA A5 receptor modulators” (RICHTER GEDEON NYRT., priority 2018, dated 2025).

SMILES strings stand for the structures.

Test [1] addresses T1, human recombinant GABAA α5β3γ2 receptor (Homo sapiens (Human), UniProt P18507+P31644). In words: Binding assay, [3H]Ro151788 displacement on membranes of HEK cells. As to conditions: 0.5 nM [3H]Ro151788, 60 minutes at 4° C., Cheng-Prusoff; read-out: hGABAA α5 Ki. The procedure: The GABAA α5β3γ2 protein used for the receptor binding assay was derived from membranes produced from HEK cells (Millipore CYL3073) expressing the human recombinant GABAA α5β3γ2 receptor. Cells were stored and cultured in-house according to the instructions provided by the vendor (Millipor). Cell pellet was homogenized in 10 times modified Krebs Henseleit buffer (membrane preparation buffer): 20 mM Tris, 120 mM NaCl, 100 mM KCl, 25 mM CaCl2) and 25 mM MgCl2 pH=7.4 at 4° C. using Ultra Turrax (Janke&Kunkel) maximal speed for 15 seconds. The homogenate was centrifuged at 40,000 g for 30 minutes at 4° C. Supernatant was discarded and the resulting pellet was washed in membrane preparation buffer. Pellet was resuspended in membrane preparation buffer and aliquots of 1.4 mL ampulles were stored at −70° C. until use.
Receptor binding assays were performed in 96-well format in deep-well plates. For each 96-well plate one ampulle of membrane homogenate was thawed and diluted in binding buffer (50 mM Tris pH=7.4, 100 mM KCl) and 200 μL was dispensed into each well. Radioligand [^3H]Ro151788 (Perkin Elmer: NET757250UC) was prepared in binding buffer and added to each well in 50 μL volume to give final concentration of 0.5 nM. Test compounds in suitable concentration(s) were added in additional 50 μL. The final assay volume was 300 μL. Incubation was carried out for 60 minutes at 4° C. For non-specific binding 10 μM unlabeled diazepam was used. After incubation samples were filtered over UniFilter® GF/B™ using Filtermate Harvester (Perkin Elmer) and washed with 5×1 mL binding buffer. The plate was dried at 40° C. for an hour and 40 μL Microscint (Perkin Elmer) scintillation cocktail was added to each well. The plate was read in Microbeta (Perkin Elmer).
The specific radioligand binding (SB) was defined as the difference between total binding (Tot) and the non-specific binding (NSB). Results are expressed as a percent inhibition of specific binding obtained in the presence of compound of interest.
For IC50 and Ki determination a minimum of six drug concentrations in triplicate were used. […] Ki values (i.e. inhibition constants) were calculated using the Cheng-Prusoff equation Ki=IC50/[1+(L/KD)], where [L] is the radioligand concentration and KD the affinity of the labelled ligand for receptor. KD was determined from the Saturation analyses.

Test [2] addresses T1, human recombinant GABAA α5β3γ2 receptor. In words: Functional assay, QPatch automated patch clamp, GABA-evoked currents. The format is cell-based. The conditions noted are these: test compound 10 μM, 1 μM GABA, HEK293 cells, percentage modulation of peak current. The procedure: (§1) Human HEK293 cell lines expressing GABAA α1β3γ2 and GABAAα5β3γ2 receptors were used in functional assays using the QPatch automated patch clamp system.
(§2) HEK293 cell lines stably expressing human recombinant GABAA α1β3γ2 receptor subunits (Millipore, CYL3073) or human recombinant GABAA α5β3γ2 receptor subunits (Millipore, CYL3053) were cultured in DMEM supplemented with 10% FBS (Gibco), passed two times per week and plated on Petri dishes previously coated with poly-d-lysine.
(§3) Automated whole-cell patch clamp recordings were made from cells 2-4 days after plating. Cells were detached using trypsin/EDTA (Sigma) treatment (2 minutes in 0.25% trypsin at 37° C.), then, after centrifugation (125 G, 3 min, 2×), resuspended in a serum-free based media (Gibco, CHO—S-SFM-II) containing 12.5 mM HEPES, 1× penicillin-streptomycin-amphotericin (SigmaMix) and soybean trypsin inhibitor (Sigma, 0.04 mg/ml).
(§4) Cell suspension, as well as the extracellular solution (130 mM NaCl, 5 mM KCl, 5.1 mM HEPES, 4.9 mM HEPES-Na, 10 mM CaCl2), 2 mM MgCl2, 10 mM glucose and 0.1% DMSO, pH=7.35-7.4) and the intracellular solution (80 mM KCl, 50 mM KF, 36 mM KOH, 10 mM EGTA, 10 mM HEPES, 1.75 mM MgCl2, 0.5 mM CaCl2), 4 mM Na2ATP. 14 mM phosphocreatine, 50 U/ml creatine-phosphokinase, 0.3 mM GTP, pH=7.25-7.3) were added to the QPatch-HTX automated patch clamp system (Sophion) in single-cell mode at room temperature. […] At the end of the experiment 100 μM GABA was applied to saturate the GABA-response and to assess the efficacy of the control GABA application.
(§5) The percentage modulation was calculated from the comparison of GABA-evoked peak current amplitudes in the presence and absence of the test compound.
In general terms: In patch-clamp work, channel activity is measured electrically.

Test [3] addresses human recombinant GABAA α1β3γ2 receptor (Homo sapiens (Human), UniProt P14867+P18507). The description is as above. The class given is cell-based. The conditions noted are these: test compound 10 μM, 1 μM GABA, HEK293 cells, percentage modulation of peak current. The method, then: as §1, §2, §3, §4, §5

T1 sequence (P31644 32-462): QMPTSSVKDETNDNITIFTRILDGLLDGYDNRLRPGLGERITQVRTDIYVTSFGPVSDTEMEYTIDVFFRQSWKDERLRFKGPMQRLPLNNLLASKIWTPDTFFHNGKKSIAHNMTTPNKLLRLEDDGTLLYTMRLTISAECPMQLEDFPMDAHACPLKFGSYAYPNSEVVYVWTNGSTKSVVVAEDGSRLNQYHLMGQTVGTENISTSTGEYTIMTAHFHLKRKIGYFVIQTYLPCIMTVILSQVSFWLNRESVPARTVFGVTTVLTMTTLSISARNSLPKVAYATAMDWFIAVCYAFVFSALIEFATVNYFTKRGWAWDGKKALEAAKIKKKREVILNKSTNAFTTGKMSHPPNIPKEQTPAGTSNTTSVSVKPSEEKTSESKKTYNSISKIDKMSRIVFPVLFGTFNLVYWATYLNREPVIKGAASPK
T1 sequence (P28472 26-473 partner): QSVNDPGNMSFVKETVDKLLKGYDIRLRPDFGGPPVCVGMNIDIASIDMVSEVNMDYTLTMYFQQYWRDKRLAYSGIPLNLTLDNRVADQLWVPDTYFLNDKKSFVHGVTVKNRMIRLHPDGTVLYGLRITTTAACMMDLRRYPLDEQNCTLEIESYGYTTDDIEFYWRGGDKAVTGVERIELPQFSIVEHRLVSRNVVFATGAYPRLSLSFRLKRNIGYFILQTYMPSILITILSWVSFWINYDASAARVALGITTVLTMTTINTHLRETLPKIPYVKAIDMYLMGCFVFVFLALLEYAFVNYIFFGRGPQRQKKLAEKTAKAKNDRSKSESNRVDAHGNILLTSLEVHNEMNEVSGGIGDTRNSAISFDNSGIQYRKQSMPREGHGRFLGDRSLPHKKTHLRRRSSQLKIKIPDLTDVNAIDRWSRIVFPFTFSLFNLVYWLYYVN
T1 sequence (P18507 40-475): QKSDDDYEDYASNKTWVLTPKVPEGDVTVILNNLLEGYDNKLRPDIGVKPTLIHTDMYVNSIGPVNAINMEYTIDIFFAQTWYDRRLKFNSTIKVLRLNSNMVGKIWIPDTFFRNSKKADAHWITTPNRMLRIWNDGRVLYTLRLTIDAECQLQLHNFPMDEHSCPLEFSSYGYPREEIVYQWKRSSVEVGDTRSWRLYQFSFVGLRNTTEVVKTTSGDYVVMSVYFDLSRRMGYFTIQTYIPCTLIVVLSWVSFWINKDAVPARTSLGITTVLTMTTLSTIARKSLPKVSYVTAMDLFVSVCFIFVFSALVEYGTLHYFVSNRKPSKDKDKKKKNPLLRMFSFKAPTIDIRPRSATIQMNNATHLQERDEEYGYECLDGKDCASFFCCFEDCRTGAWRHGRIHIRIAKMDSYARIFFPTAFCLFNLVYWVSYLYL
Chain of human recombinant GABAA α1β3γ2 receptor (P14867 28-456): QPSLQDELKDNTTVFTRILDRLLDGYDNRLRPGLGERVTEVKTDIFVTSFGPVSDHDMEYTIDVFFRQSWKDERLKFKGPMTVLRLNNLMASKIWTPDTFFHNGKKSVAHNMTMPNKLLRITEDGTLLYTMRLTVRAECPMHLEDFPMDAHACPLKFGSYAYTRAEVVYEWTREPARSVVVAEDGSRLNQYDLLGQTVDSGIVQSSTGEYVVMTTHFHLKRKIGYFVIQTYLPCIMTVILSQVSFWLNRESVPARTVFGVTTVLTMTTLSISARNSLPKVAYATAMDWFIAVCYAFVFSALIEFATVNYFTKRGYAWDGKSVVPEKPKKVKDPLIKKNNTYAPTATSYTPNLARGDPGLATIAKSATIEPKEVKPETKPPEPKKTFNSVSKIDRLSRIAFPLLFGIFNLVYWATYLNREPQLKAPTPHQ
Chain of human recombinant GABAA α1β3γ2 receptor (P28472 26-473 partner): as the sequence (P28472 26-473 partner) above
Chain of human recombinant GABAA α1β3γ2 receptor (P18507 40-475): as the sequence (P18507 40-475) above

What is called Ki is a measure of affinity in units of concentration, obtained from inhibition or displacement. As to `Cc1onc(-c2ccc(F)cc2)c1COc1ccc2c(n1)CCN(C(=O)C1CCOC1)C2` (stereo not drawn) [Example 2, 2-{[3-(4-fluorophenyl)-5-methyl-1,2-oxazol-4-yl]methoxy}-6-(oxolane-3-carbonyl)-5,6,7,8-tetrahydro-1,6-naphthyridine], the Ki in test [1] is 7 nM. Moreover, in test [2], the “hGABAA α5 efficacy” value is −40%. The “hGABAA α1 efficacy” value in test [3] is recorded as −14%. As to `Cc1onc(-c2ccc(F)cc2)c1COc1ccc2c(n1)CCN(C(=O)C1CCS(=O)(=O)CC1)C2` [Example 6, 4-(2-{[3-(4-fluorophenyl)-5-methyl-1,2-oxazol-4-yl]methoxy}-5,6,7,8-tetrahydro-1,6-naphthyridine-6-carbonyl)-1lambda6-thiane-1,1-dione], the Ki in test [1] amounted to 2.7 nM. Besides, the “hGABAA α5 efficacy” value in test [2] is given as −38%. The “hGABAA α1 efficacy” value in test [3] is reported as −10%. As to `Cc1onc(-c2ccc(F)cc2)c1COc1ccc2c(n1)CCN(C(=O)CS(C)(=O)=O)C2` [Example 8, 1-(2-{[3-(4-fluorophenyl)-5-methyl-1,2-oxazol-4-yl]methoxy}-5,6,7,8-tetrahydro-1,6-naphthyridin-6-yl)-2-methanesulfonylethan-1-one], the Ki in test [1] amounted to 3.7 nM. For the same compound, the “hGABAA α5 efficacy” value in test [2] is on record as −39%. For the same compound, the “hGABAA α1 efficacy” value in test [3] is reported as −2%. On to `Cc1onc(-c2ccc(F)cc2)c1COc1ccc2c(n1)CCN(C(=O)C1CCOCC1)C2` [Example 9, 2-{[3-(4-fluorophenyl)-5-methyl-1,2-oxazol-4-yl]methoxy}-6-(oxane-4-carbonyl)-5,6,7,8-tetrahydro-1,6-naphthyridine], for which the Ki in test [1] was found to be 6.2 nM. Moreover, in test [2], the “hGABAA α5 efficacy” value is given as −37%. Moreover, the “hGABAA α1 efficacy” value in test [3] is on record as −9%. Consider `Cc1onc(-c2ccc(F)cc2)c1COc1ccc2c(n1)CCN(C(=O)C1CC(=O)N(C)C1)C2` (stereo not drawn) [Example 13, 4-(2-{[3-(4-fluorophenyl)-5-methyl-1,2-oxazol-4-yl]methoxy}-5,6,7,8-tetrahydro-1,6-naphthyridine-6-carbonyl)-1-methylpyrrolidin-2-one], for which the Ki in test [1] was 4.3 nM. Further, the “hGABAA α5 efficacy” value in test [2] is on record as −34%. Besides, the “hGABAA α1 efficacy” value in test [3] is listed as −3%.

In the case of `Cc1nnn(-c2ccc(Cl)cc2)c1COc1ccc2c(n1)CCN(C(=O)C1CCOC1)C2` (stereo not drawn) [Example 29, 2-{[1-(4-chlorophenyl)-4-methyl-1H-1,2,3-triazol-5-yl]methoxy}-6-(oxolane-3-carbonyl)-5,6,7,8-tetrahydro-1,6-naphthyridine], the “hGABAA α5 efficacy” value in test [2] was −25%. In addition, the “hGABAA α1 efficacy” value in test [3] is listed as −2%. Take `Cn1nnc(-c2ccc(F)cc2)c1COc1ccc2c(n1)CN(C(=O)C1CCOC1)C2` (stereo not drawn) [Example 71, 4-(4-fluorophenyl)-1-methyl-5-({[6-(oxolane-3-carbonyl)-5H,6H,7H-pyrrolo[3,4-b]pyridin-2-yl]oxy}methyl)-1H-1,2,3-triazole]: the Ki in test [1] came out at 56 nM.

Take `CC(C)C(=O)N1Cc2ccc(OCc3c(-c4ccc(F)cc4)nnn3C)nc2C1` [Example 72, 1-(2-{[4-(4-fluorophenyl)-1-methyl-1H-1,2,3-triazol-5-yl]methoxy}-5H,6H,7H-pyrrolo[3,4-b]pyridin-6-yl)-2-methylpropan-1-one]: the Ki in test [1] stood at 29 nM.

Take `Cn1nnc(-c2ccc(F)cc2)c1COc1ccc2c(n1)CN(C(=O)C1CCCO1)C2` (stereo not drawn) [Example 73, 4-(4-fluorophenyl)-1-methyl-5-({[6-(oxolane-2-carbonyl)-5H,6H,7H-pyrrolo[3,4-b]pyridin-2-yl]oxy}methyl)-1H-1,2,3-triazole]: in test [1], the Ki is 18 nM.

As for `Cn1nnc(-c2ccc(F)cc2)c1COc1ccc2c(n1)CN(C(=O)C1CCCOC1)C2` (stereo not drawn) [Example 74, 4-(4-fluorophenyl)-1-methyl-5-({[6-(oxane-3-carbonyl)-5H,6H,7H-pyrrolo[3,4-b]pyridin-2-yl]oxy}methyl)-1H-1,2,3-triazole], the Ki in test [1] was determined as 46 nM. `Cc1nnn(-c2ccc(F)cc2)c1COc1ccc2c(n1)CCN(C(=O)N(C)C)C2` [Example 76, 2-{[1-(4-fluorophenyl)-4-methyl-1H-1,2,3-triazol-5-yl]methoxy}-N,N-dimethyl-5,6,7,8-tetrahydro-1,6-naphthyridine-6-carboxamide]: the Ki in test [1] stood at 30 nM. `Cc1nnn(-c2ccc(F)cc2)c1COc1ccc2c(n1)CCN(C(=O)N1CCCC1)C2` [Example 77, 2-{[1-(4-fluorophenyl)-4-methyl-1H-1,2,3-triazol-5-yl]methoxy}-6-(pyrrolidine-1-carbonyl)-5,6,7,8-tetrahydro-1,6-naphthyridine]: the Ki in test [1] is 66 nM. Regarding `Cc1nnn(-c2ccc(F)cc2)c1COc1ccc2c(n1)CCN(C(=O)Nc1ccccc1Cl)C2` [Example 79, N-(2-chlorophenyl)-2-{[1-(4-fluorophenyl)-4-methyl-1H-1,2,3-triazol-5-yl]methoxy}-5,6,7,8-tetrahydro-1,6-naphthyridine-6-carboxamide], the Ki in test [1] was 108 nM.

For `Cc1nnn(-c2ccc(F)cc2)c1COc1ccc2c(n1)CCN(C(=O)N1CCOCC1)C2` [Example 80, 2-{[1-(4-fluorophenyl)-4-methyl-1H-1,2,3-triazol-5-yl]methoxy}-6-(morpholine-4-carbonyl)-5,6,7,8-tetrahydro-1,6-naphthyridine], the Ki in test [1] was determined as 38 nM. `Cc1nnn(-c2ccc(F)cc2)c1COc1ccc2c(n1)CCN(C(=O)Nc1ccc(Cl)cc1)C2` [Example 81, N-(4-chlorophenyl)-2-{[1-(4-fluorophenyl)-4-methyl-1H-1,2,3-triazol-5-yl]methoxy}-5,6,7,8-tetrahydro-1,6-naphthyridine-6-carboxamide]: the Ki in test [1] is 37 nM. `Cc1onc(-c2ccc(F)cc2)c1COc1ccc2c(n1)CCN(C(=O)N1CCOCC1)C2` [Example 82, 2-{[3-(4-fluorophenyl)-5-methyl-1,2-oxazol-4-yl]methoxy}-6-(morpholine-4-carbonyl)-5,6,7,8-tetrahydro-1,6-naphthyridine]: the Ki in test [1] was determined as 5.2 nM. As for `Cc1onc(-c2ccc(F)cc2)c1COc1ccc2c(n1)CCN(C(=O)N(C)C)C2` [Example 83, 2-{[3-(4-fluorophenyl)-5-methyl-1,2-oxazol-4-yl]methoxy}-N,N-dimethyl-5,6,7,8-tetrahydro-1,6-naphthyridine-6-carboxamide], in test [1], the Ki came to 3.8 nM. On the same count and under the same terms, in the case of `Cc1onc(-c2ccc(F)cc2)c1COc1ccc2c(n1)CCN(C(=O)N1CCCC1)C2` [Example 84, 2-{[3-(4-fluorophenyl)-5-methyl-1,2-oxazol-4-yl]methoxy}-6-(pyrrolidine-1-carbonyl)-5,6,7,8-tetrahydro-1,6-naphthyridine] it was 8.9 nM; in that of `Cc1onc(-c2ccc(F)cc2)c1COc1ccc2c(n1)CCN(C(=O)NC1CCOC1)C2` (stereo not drawn) [Example 86, 2-{[3-(4-fluorophenyl)-5-methyl-1,2-oxazol-4-yl]methoxy}-N-(oxolan-3-yl)-5,6,7,8-tetrahydro-1,6-naphthyridine-6-carboxamide], 6.5 nM.
